Data on twelve compounds can be found in patent US20260035338A1, “AMINO LIPID COMPOUND AND LIPID NANOPARTICLE FOR DELIVERING BIOACTIVE INGREDIENT” (SHENZHEN SHENXIN BIOTECHNOLOGY CO., LTD., priority 2022, published 2026).

SMILES strings stand for the structures.

The test concerns BALB/c mice. The test can be described thus: In vivo delivery of Fluc mRNA-encapsulating LNP formulations, luciferase signal by In Vivo Imaging System (IVIS). The note with it: tail vein injection (IV) 70 μL, female BALB/c mice, 6 hours after injection; for Average number of photons (Total in-vivo flux): LNP formulation encapsulating Fluc mRNA (Lipid:DSPC:CHO-HP:M-DMG-2000 48:10:40.5:1.5); for Average number of photons (Liver) / Average number of photons (Spleen): LNP formulation encapsulating Fluc mRNA. The protocol:
Animal preparation: Female BALB/c mice of 6-8 weeks old were selected and raised in an SPF grade breeding room. Animal testing was conducted in strict accordance with the guidelines of national health institutions and animal ethics requirements.
In vivo Delivery: prior to injection of the test LNP formulation, the LNP formulation was gently and repeatedly inverted to thoroughly mix the sample of the formulation. A corresponding amount of the LNP formulation was aspirated with a 1 ml insulin syringe, and the LNP formulation was injected by tail vein injection (IV), with 3 mice in duplicate per formulation. Each mouse was injected with 70 μL of the corresponding LNP formulation encapsulating the luciferase mRNA (Fluc mRNA) prepared in Experimental Example 1.
6 hours after injection of LNP formulations, mice were injected with 200 μL D-Luciferin luciferase developing substrate (Catalog No. 122799; Manufacturer: Perkin Elmer). After the substrate was injected, the mice were anesthetized with isoflurane inhalation, and the injection time of luciferase developing substrate was recorded.
The encapsulation efficiency of the lipid nanoparticle encapsulating luciferase mRNA (Fluc mRNA) with a representative amino lipid compound and the fluorescence expression intensity induced by the same are shown in Table 4, with the LNP formulation containing SM-102, 1001 or ALC-0315 as a control LNP formulation. The preparation method of the control LNP formulation was basically the same as that of the LNP formulations in Experimental Example 1, with the difference lying in that the amino lipid compounds of the present disclosure were replaced with SM-102, 1001 or ALC-0315 in the preparation of the control LNP formulation.

Turning to `CCCCCCCCOC(CCCOC(=O)CCCCCCCCC(CCCCCCCCCNC(=O)OCC(OCCCCCC)OCCCCCC)OC(=O)OCCCN(CC)CC)OCCCCCCCC` (stereo not drawn) [compound 458], the “Average number of photons (Total in-vivo flux)” value turned out to be 1.29E+08, the “Average number of photons (Liver)” value came to 2.69E+07 and the “Average number of photons (Spleen)” value came out at 2.60E+06.

Consider `CCCCCCOC(CCCNC(=O)OCCCCCCCC(CCCCCCCCCOC(=O)NCC(OCCCCCC)OCCCCCC)OC(=O)OCCCN(CC)CC)OCCCCCC` (stereo not drawn) [compound 459], for which the “Average number of photons (Total in-vivo flux)” value is 3.42E+07, the “Average number of photons (Liver)” value is 5.09E+06 and the “Average number of photons (Spleen)” value is recorded as 2.52E+06.

For the compound `CCCCCCCOC(CCCOC(=O)CCCCCCCCC(CCCCCCCCC(=O)OCCCC(OCCCCCCC)OCCCCCCC)OC(=O)OCCCN(C)C)OCCCCCCC` [compound 490], the “Average number of photons (Total in-vivo flux)” value came out at 2.65E+07, the “Average number of photons (Liver)” value turned out to be 3.68E+06 and the “Average number of photons (Spleen)” value came out at 5.06E+05.

As for `CCCCCCCCCOC(CCCOC(=O)CCCCCCCCC(CCCCCCCCC(=O)OCCCC(OCCCCCCCCC)OCCCCCCCCC)OC(=O)OCCCN(C)C)OCCCCCCCCC` [compound 849], the “Average number of photons (Total in-vivo flux)” value was 2.67E+07, the “Average number of photons (Liver)” value stood at 4.12E+06 and the “Average number of photons (Spleen)” value is recorded as 1.82E+05.

For `CCCCCCCOC(CCCOC(=O)CCCCCCCCC(CCCCCCCCC(=O)OCCCC(OCCCCC)OCCCCC)OC(=O)OCCCN(C)C)OCCCCCCC` (stereo not drawn) [compound 851], the “Average number of photons (Total in-vivo flux)” value was 1.28E+08, the “Average number of photons (Liver)” value is recorded as 2.21E+07 and the “Average number of photons (Spleen)” value is given as 1.93E+06.

For the compound `CCCCCCCCCOC(CCCOC(=O)CCCCCCCCC(CCCCCCCCC(=O)OCCCC(OCCCCCC)OCCCCCC)OC(=O)OCCCN(C)C)OCCCCCCCCC` (stereo not drawn) [compound 856], the “Average number of photons (Total in-vivo flux)” value is on record as 3.40E+07, the “Average number of photons (Liver)” value was 9.34E+06 and the “Average number of photons (Spleen)” value is 3.58E+05.

Consider `CCCCCCCCOC(CCCOC(=O)CCCCCCCCC(CCCCCCCCC(=O)OCCCC(OCCCCCCCC)OCCCCCCCC)OC(=O)OCCCN(CC)CC)OCCCCCCCC` [compound 859], for which the “Average number of photons (Total in-vivo flux)” value came to 2.31E+07, the “Average number of photons (Liver)” value amounted to 3.71E+06 and the “Average number of photons (Spleen)” value is 7.21E+04.

For the compound `CCCCCCOC(CCCOC(=O)CCCCCCCCC(CCCCCCCCC(=O)OCCCC(OCCCCC)OCCCCC)OC(=O)OCCCN(CC)CC)OCCCCCC` (stereo not drawn) [compound 861], the “Average number of photons (Total in-vivo flux)” value is 6.67E+07, the “Average number of photons (Liver)” value is recorded as 1.17E+07 and the “Average number of photons (Spleen)” value worked out at 3.52E+05.

`CCCCCCCOC(CCCOC(=O)CCCCCCCCC(CCCCCCCCC(=O)OCCCC(OCCCCC)OCCCCC)OC(=O)OCCCN(CC)CC)OCCCCCCC` (stereo not drawn) [compound 862]: the “Average number of photons (Total in-vivo flux)” value is on record as 8.57E+07, the “Average number of photons (Liver)” value was found to be 1.53E+07 and the “Average number of photons (Spleen)” value is given as 6.67E+05.

Consider `CCCCCCCCOC(CCCOC(=O)CCCCCCCCC(CCCCCCCCC(=O)OCCCC(OCCCCC)OCCCCC)OC(=O)OCCCN(CC)CC)OCCCCCCCC` (stereo not drawn) [compound 863], for which the “Average number of photons (Total in-vivo flux)” value was 4.43E+07, the “Average number of photons (Liver)” value was 7.13E+06 and the “Average number of photons (Spleen)” value turned out to be 2.88E+05.

Take `CCCCCCCCCOC(CCCOC(=O)CCCCCCCCC(CCCCCCCCC(=O)OCCCC(OCCCCC)OCCCCC)OC(=O)OCCCN(CC)CC)OCCCCCCCCC` (stereo not drawn) [compound 864]: the “Average number of photons (Total in-vivo flux)” value amounted to 3.66E+07, the “Average number of photons (Liver)” value stood at 6.58E+06 and the “Average number of photons (Spleen)” value is given as 2.33E+05.

For the compound `CCCCCCCOC(CCCOC(=O)CCCCCCCCC(CCCCCCCCC(=O)OCCCC(OCCCCCC)OCCCCCC)OC(=O)OCCCN(CC)CC)OCCCCCCC` (stereo not drawn) [compound 865], the “Average number of photons (Total in-vivo flux)” value came out at 4.34E+07, the “Average number of photons (Liver)” value was 8.60E+06 and the “Average number of photons (Spleen)” value is reported as 3.25E+05.
